The results in this text go back to PubChem BioAssay AID330 (DTP/NCI, 2004).

Inconclusive results and toxic doses are left out.

The subject of the assay is P388 leukemia ip, CD2F1 mice, survival T/C. Description: NCI In Vivo Anticancer Drug Screen. Data for tumor model P388 Leukemia (intraperitoneal) in CD2F1 (CDF1) mice. The conditions noted are these: endpoint: median survival time, higher = longer survival. A digest of the protocol:
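Mice carrying the transplanted tumor received test compound or vehicle. Survival was recorded in each group, and the value is the treated-group measurement divided by that of the vehicle-treated control group.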

Where [1] appears, read: dose: 60.0 mg/kg/injection, schedule: Q01DX005 (ip), vehicle: saline with Tween-80.
Where [2] appears, read: dose: 120.0 mg/kg/injection, schedule: Q01DX005 (ip), vehicle: saline with Tween-80.
The mark [3] stands for this setting: dose: 240.0 mg/kg/injection, schedule: Q01DX005 (ip), vehicle: saline with Tween-80.
Where [4] appears, read: dose: 50.0 mg/kg/injection, schedule: Q01DX005 (ip), vehicle: Klucel (hydroxypropylcellulose) (HPC).
Where [5] appears, read: dose: 100.0 mg/kg/injection, schedule: Q01DX005 (ip), vehicle: Klucel (hydroxypropylcellulose) (HPC).
[6] abbreviates: dose: 200.0 mg/kg/injection, schedule: Q01DX005 (ip), vehicle: Klucel (hydroxypropylcellulose) (HPC).
Where [7] appears, read: dose: 25.0 mg/kg/injection, schedule: Q01DX009 (ip), vehicle: saline with Tween-80.
[8] abbreviates: dose: 50.0 mg/kg/injection, schedule: Q01DX009 (ip), vehicle: saline with Tween-80.
[9] abbreviates: dose: 100.0 mg/kg/injection, schedule: Q01DX009 (ip), vehicle: saline with Tween-80.

With `COc1cccc2c1C(=O)c1c(O)c3c(c(O)c1C2=O)CC(O)(c1csc(N)n1)CC3O` (stereo not given), the T/C reads like this: (dose: 1.56 mg/kg/injection, schedule: Q01DX009 (ip), vehicle: other) 100 % of control; (dose: 3.13 mg/kg/injection, schedule: Q01DX009 (ip), vehicle: other) 107 % of control; (dose: 6.25 mg/kg/injection, schedule: Q01DX009 (ip), vehicle: other) 101 % of control; (dose: 12.5 mg/kg/injection, schedule: Q01DX009 (ip), vehicle: other) 108 % of control; (dose: 25.0 mg/kg/injection, schedule: Q01DX009 (ip), vehicle: other) 107 % of control; (dose: 50.0 mg/kg/injection, schedule: Q01DX009 (ip), vehicle: other) 108 % of control.

As to `O=C1C(NCC(O)CO)=C(N2CC2)C(=O)C(NCC(O)CO)=C1N1CC1` (stereo not given), the T/C is 198 % of control (dose: 1.5 mg/kg/injection, schedule: Q01DX009 (ip), vehicle: saline); 227 % of control (dose: 3.0 mg/kg/injection, schedule: Q01DX009 (ip), vehicle: saline); 270 % of control (dose: 4.0 mg/kg/injection, schedule: Q01DX009 (ip), vehicle: saline).

`COc1ccc(C(CN2CCOCC2)C(C)=O)cc1OC` (stereo not given): the T/C was 101 % of control (dose: 60.0 mg/kg/injection, schedule: Q01DX005 (ip), vehicle: saline); 101 % of control (dose: 120.0 mg/kg/injection, schedule: Q01DX005 (ip), vehicle: saline); 101 % of control (dose: 240.0 mg/kg/injection, schedule: Q01DX005 (ip), vehicle: saline).

As to `CC1(C)N=C(N)N=C(N)N1c1ccc(OCC(=O)N2CCOCC2)c(Cl)c1`, the T/C runs as follows: (dose: 25.0 mg/kg/injection, schedule: Q01DX009 (ip), vehicle: saline) 109 % of control; (dose: 50.0 mg/kg/injection, schedule: Q01DX009 (ip), vehicle: saline) 116 % of control; (dose: 100.0 mg/kg/injection, schedule: Q01DX009 (ip), vehicle: saline) 107 % of control; (dose: 100.0 mg/kg/injection, schedule: Q04DX003 (ip), vehicle: saline sonified) 113 % of control.

On to `COC(=O)[C@H](NC(=O)c1ccccc1)[C@@H](O)/C=C/c1ccccc1`, for which the T/C is, setting by setting: (dose: 50.0 mg/kg/injection, schedule: Q01DX005 (ip), vehicle: saline with Tween-80) 94 % of control; (dose: 200.0 mg/kg/injection, schedule: Q01DX005 (ip), vehicle: saline with Tween-80) 87 % of control.

For the compound `O=C1c2cc(O)c(O)cc2C(=O)c2cc3c(cc21)OCO3`, the T/C is 97 % of control under setting [1], 90 % of control under setting [2] and 90 % of control under setting [3].

With `O=C1C(CN2CCCCC2)=C(O)C(c2ccccc2)N1c1ccccc1` (stereo not given), the T/C under setting [1] was 96 % of control, the T/C under setting [2] was 95 % of control and the T/C under setting [3] is 97 % of control.

For `COc1ccc(N=C2C(=Nc3ccc(OC)cc3)N(c3ccc(OC)cc3)C(=S)N2C(=O)c2ccc(Cl)cc2)cc1`, the T/C (dose: 50.0 mg/kg/injection, schedule: Q01DX005 (ip), vehicle: Klucel + Tween-80) was 90 % of control; the T/C (dose: 100.0 mg/kg/injection, schedule: Q01DX005 (ip), vehicle: Klucel + Tween-80) is 93 % of control; the T/C (dose: 200.0 mg/kg/injection, schedule: Q01DX005 (ip), vehicle: Klucel + Tween-80) is 90 % of control.

Consider `CCOC(=O)c1c(-c2ccccc2)oc2ccc(NS(=O)(=O)c3ccccc3)cc12`, for which the T/C runs as follows: (dose: 100.0 mg/kg/injection, schedule: Q01DX001 (ip), vehicle: saline with Tween-80) 95 % of control; (dose: 200.0 mg/kg/injection, schedule: Q01DX001 (ip), vehicle: saline with Tween-80) 104 % of control; (dose: 400.0 mg/kg/injection, schedule: Q01DX001 (ip), vehicle: saline with Tween-80) 95 % of control.

Regarding `COC(=O)c1cccc2c(N)c(N)cc(C(=O)OC)c12`, the T/C is, setting by setting: under setting [1], 100 % of control; under setting [2], 104 % of control; under setting [3], 106 % of control.

As to `CCCCOc1ccc(-n2c(=O)[nH]c3ccccc3c2=O)cc1`, the T/C is, setting by setting: under setting [4], 96 % of control; under setting [5], 100 % of control; under setting [6], 96 % of control.

For the compound `O=C(Nc1ccc(C2=NCC(O)CN2)cc1)c1ccc(C(=O)Nc2ccc(C3=NCC(O)CN3)cc2)cc1` (stereo not given), the T/C runs as follows: (dose: 1.56 mg/kg/injection, schedule: Q01DX005 (ip), vehicle: saline with Tween-80) 122 % of control; (dose: 6.25 mg/kg/injection, schedule: Q01DX005 (ip), vehicle: saline with Tween-80) 155 % of control.

Take `Nc1cc(Cl)cc2c1-c1ccc(Cl)cc1C2`: the T/C under setting [4] is 93 % of control, the T/C under setting [5] is 93 % of control and the T/C under setting [6] is 94 % of control.

On to `Cc1cc[n+](CCC(N)=O)cc1`, for which the T/C (dose: 100.0 mg/kg/injection, schedule: Q04DX003 (ip), vehicle: saline) is 100 % of control and the T/C (dose: 200.0 mg/kg/injection, schedule: Q04DX003 (ip), vehicle: saline) is 100 % of control.

`O=C(Nc1n[nH]c(NC(=O)c2ccc([N+](=O)[O-])cc2)n1)c1ccc([N+](=O)[O-])cc1`: the T/C reads like this: under setting [4], 93 % of control; under setting [5], 90 % of control; under setting [6], 90 % of control.

Take `CC(=O)C(=N/O)/C(C)=N/NC(=O)CC#N`: the T/C was 101 % of control (dose: 100.0 mg/kg/injection, schedule: Q04DX009 (ip), vehicle: saline) and 100 % of control (dose: 200.0 mg/kg/injection, schedule: Q04DX009 (ip), vehicle: saline).

For the compound `Cc1nc(=S)c2ncn(-c3ccccc3)c2[nH]1`, the T/C was 95 % of control (dose: 60.0 mg/kg/injection, schedule: Q01DX005 (ip), vehicle: Klucel (hydroxypropylcellulose) (HPC)) and 94 % of control (dose: 120.0 mg/kg/injection, schedule: Q01DX005 (ip), vehicle: Klucel (hydroxypropylcellulose) (HPC)).

As for `CC1=NN(C(=O)c2cccnc2)C(=O)C1N=Nc1ccc(S(=O)(=O)Nc2ccccn2)cc1` (stereo not given), the T/C (dose: 100.0 mg/kg/injection, schedule: Q04DX003 (ip), vehicle: saline with Tween-80) is 94 % of control; the T/C (dose: 200.0 mg/kg/injection, schedule: Q04DX003 (ip), vehicle: saline with Tween-80) is 93 % of control; the T/C (dose: 400.0 mg/kg/injection, schedule: Q04DX003 (ip), vehicle: saline with Tween-80) was 90 % of control.

With `Cc1ccc(OP(=O)(Oc2ccc(C)cc2)Oc2ccc(C)cc2)cc1.Cc1ccc(OP(=O)(Oc2ccc(C)cc2)Oc2ccc(C)cc2)cc1.Cc1ccc(OP(=O)(Oc2ccc(C)cc2)Oc2ccc(C)cc2)cc1.Cc1ccc(OP(=O)(Oc2ccc(C)cc2)Oc2ccc(C)cc2)cc1.[O-][Cl+3]([O-])([O-])O.[Zn+2]`, the T/C is 98 % of control (dose: 100.0 mg/kg/injection, schedule: Q04DX003 (ip), vehicle: Klucel (hydroxypropylcellulose) (HPC)) and 102 % of control (dose: 200.0 mg/kg/injection, schedule: Q04DX003 (ip), vehicle: Klucel (hydroxypropylcellulose) (HPC)).

Regarding `Clc1ccc(Cc2nc3ccccc3s2)cc1`, the T/C was 106 % of control under setting [1] and 121 % of control under setting [2].

Consider `COc1ccc(OC)c(C2SCC(=O)N2c2nncs2)c1` (stereo not given), for which the T/C by setting is: under setting [1], 104 % of control; under setting [2], 97 % of control; under setting [3], 97 % of control.

On to `N#CC(C#N)=CN(CCO)CCO`, for which the T/C was 99 % of control (dose: 50.0 mg/kg/injection, schedule: Q01DX005 (ip), vehicle: saline); 99 % of control (dose: 100.0 mg/kg/injection, schedule: Q01DX005 (ip), vehicle: saline); 97 % of control (dose: 200.0 mg/kg/injection, schedule: Q01DX005 (ip), vehicle: saline).

As to `CCOC(=O)C1=C(c2ccccc2)SC(c2ccccc2)N(C(C)C)C1=O` (stereo not given), the T/C reads like this: under setting [7], 106 % of control; under setting [8], 107 % of control; under setting [9], 100 % of control.

Turning to `O=c1sc2ccccc2n1CCCl`, the T/C is 112 % of control under setting [7]; 110 % of control under setting [8]; 114 % of control under setting [9]; 103 % of control (dose: 200.0 mg/kg/injection, schedule: Q01DX009 (ip), vehicle: saline with Tween-80).

In the case of `Cc1ccccc1NC(=O)Cc1ccccc1`, the T/C runs as follows: (dose: 6.25 mg/kg/injection, schedule: Q01DX009 (ip), vehicle: Klucel (hydroxypropylcellulose) (HPC)) 99 % of control; (dose: 12.5 mg/kg/injection, schedule: Q01DX009 (ip), vehicle: Klucel (hydroxypropylcellulose) (HPC)) 104 % of control; (dose: 25.0 mg/kg/injection, schedule: Q01DX009 (ip), vehicle: Klucel (hydroxypropylcellulose) (HPC)) 94 % of control; (dose: 50.0 mg/kg/injection, schedule: Q01DX009 (ip), vehicle: Klucel (hydroxypropylcellulose) (HPC)) 108 % of control; (dose: 100.0 mg/kg/injection, schedule: Q01DX009 (ip), vehicle: Klucel (hydroxypropylcellulose) (HPC)) 95 % of control.
